Laboratory results taken from patent US4962110A, “Pyridazinone derivatives” (Smith Kline & French Laboratories Limited, priority 1989, dated 1990).

Columns and labels:
PDE (Peak III) = assay: Inhibition of phosphodiesterase PDE (Peak III) from cat heart; conditions: read-out: IC50 PDE (Peak III); 1 μM cyclic AMP, 37°, pH 7.5
Protocol: (§1) The enzyme was assayed by incubation at 37° for 4-30 min in 50 mM Tris, 5 mM MgCl2, pH 7.5 with [3-H] cyclic nucleotide (4×10^5 disintegrations min^-1) and [14-C] nucleotide 5' monophosphate (3-10^3 disintegrations min^-1). The assay was stopped by boiling, and the [3-H] […] The reaction mixture was diluted with 0.5 ml 100 mM HEPES (N-2-Hydroxyethylpiperazine-N'-2-ethanesulfonic acid), 100 mM NaCl, pH 8.5, and applied to the column. […] The recovery of product as judged by [14-C] recovery was approximately 80%. All assays were linear with time of incubation and concentration of enzyme over the range used in these experiments.

PDE (Peak I) = assay: Characterisation of PDE (Peak I) from cat heart: substrate kinetics; format: biochemical
PDE (Peak II) = conditions: in words
Protocol: as §1

[1] = system: right ventricular strips (force of contraction); assay: Cardiac stimulant activity in vitro: force of contraction of electrically stimulated guinea pig ventricular strips; parameters: species or system Guinea pigs; conditions: Cavia porcellus, read-out: EC50 (50% increase in the force of contraction of the ventricular strips); guinea pig right ventricle strips, Krebs Henseleit, 37° C., 1.0 Hz, cumulative concentration response
Protocol: CARDIAC STIMULANT ACTIVITY--IN VITRO
The compounds of formula (I) and their pharmaceutically acceptable salts are tested for cardiac stimulant activity following a procedure based on that of S. C. Verma and J. H. McNeill (J. Pharm & Exp. Therapeutics, 200, 352-362 (1977)). Guinea pigs (500-700 g) of either sex are sacrificed and the hearts are quickly removed and transferred to a dissecting dish containing oxygenated bathing fluid. While in the bathing medium, the right ventricle is cut into two strips. The strips are each suspended in a 50 ml bath containing Krebs Henseleit solution at 37° C., and the bath is bubbled with 95% oxygen and 5% carbon dioxide. The ventricular strips are electrically stimulated at a frequency of 1.0 Hz, at double the threshold voltage. A resting tension of 1.0 g is applied to the strips and the tension is kept constant by readjustment during an equilibration period of 60 minutes. The bathing fluid is frequently changed during this period. When a steady base line is obtained, a compound under test is added to the bathing fluid and a cumulative concentration response curve is plotted.

SMILES | IC50 (PDE (Peak III)) [nM] | further results
CC1CC(=O)NN=C1c1ccc(Nc2nc(=O)c3ccccc3[nH]2)cc1 (centres unmarked) [Example 4, 6-[4-(1,4-Dihydro-4-oxo-2-quinazolinylamino)phenyl]-5-methyl-4,5-dihydro-3(2H)-pyridazinone] | 150 | –
Nc1nc2c(ncn2[C@@H]2O[C@@H]3COP(=O)(O)O[C@H]3[C@H]2O)c(=O)[nH]1 [cyclic GMP] | – | affinity (PDE (Peak I); in words): high affinity; Km (PDE (Peak I); with 50 μg/ml calmodulin): 1.4 µM; Relative Vmax (PDE (Peak I); with 50 μg/ml calmodulin): 7.2; affinity (PDE (Peak II)): relatively low affinities
Cc1c[nH]c(Nc2ccc(C3=NNC(=O)CC3C)cc2)nc1=O (centres unmarked) [Example 3, 6-[4-(1,4-Dihydro-5-methyl-4-oxo-2-pyrimidinylamino)-phenyl]-5-methyl-4,5-dihydro-3(2H)-pyridazinone] | 1120 | –
Cc1[nH]c(=O)c(C#N)cc1-c1ccncc1 [Milrinone] | 2200 | –
CC1CC(=O)NN=C1c1ccc(Nc2nc(=O)cc[nH]2)cc1 (centres unmarked) [Example 1, 6-[4-(1,4-Dihydro-4-oxo-2-pyrimidinylamino)phenyl]-5-methyl-4,5-dihydro-3(2H)-pyridazinone] | 690 | EC50 [1]: 600 nM
Cc1cc(=O)nc(Nc2ccc(C3=NNC(=O)CC3C)cc2)[nH]1 (centres unmarked) [Example 2, 6-[4-(1,4-Dihydro-6-methyl-4-oxo-2-pyrimidinylamino)phenyl]-5-methyl-4,5-dihydro-3(2H)-pyridazinone] | 450 | –
Nc1cc(-c2ccncc2)c[nH]c1=O [Amrinone] | 51800 | –
